From patent US6638935B2, “Heteroary1 derivatives and their use as medicaments” (Zentaris AG, priority 2000, dated 2003)

melting point: 94 to 96 °C
SMILES: COc1cc(OC)cc(N2CCN(C(=O)c3ccncc3)CC2)c1 [Example 13, 1-(3,5-Dimethoxyphenyl)-4-(4-pyridyl-carbonyl)piperazine]
